Experimental data as given in patent publication US4567198A, “Ethanethioates and mercaptoamides and use thereof as analgesic and enkephalinase inhibitory compounds” (Roussel Uclaf, priority 1983, dated 1986).

Each compound was assayed against T1, Enkephalinase (Rattus norvegicus, UniProt P07861) (assay: Inhibition of enkephalinase in rat striatum membrane fraction (hydrolysis of tritiated leucine-enkephaline)). Details: striatum membrane fraction of rats; 20 nanomoles tritiated leucine-enkephaline, 1 mM puromycin, 25° C., 15 minutes, Tris pH 7.4; read-out: Enkephalinase inhibition CI50.
T1 construct: from tissue; host or cells: rat striatum, membrane fraction (20,000 g pellet)
T1 sequence (P07861 1-750): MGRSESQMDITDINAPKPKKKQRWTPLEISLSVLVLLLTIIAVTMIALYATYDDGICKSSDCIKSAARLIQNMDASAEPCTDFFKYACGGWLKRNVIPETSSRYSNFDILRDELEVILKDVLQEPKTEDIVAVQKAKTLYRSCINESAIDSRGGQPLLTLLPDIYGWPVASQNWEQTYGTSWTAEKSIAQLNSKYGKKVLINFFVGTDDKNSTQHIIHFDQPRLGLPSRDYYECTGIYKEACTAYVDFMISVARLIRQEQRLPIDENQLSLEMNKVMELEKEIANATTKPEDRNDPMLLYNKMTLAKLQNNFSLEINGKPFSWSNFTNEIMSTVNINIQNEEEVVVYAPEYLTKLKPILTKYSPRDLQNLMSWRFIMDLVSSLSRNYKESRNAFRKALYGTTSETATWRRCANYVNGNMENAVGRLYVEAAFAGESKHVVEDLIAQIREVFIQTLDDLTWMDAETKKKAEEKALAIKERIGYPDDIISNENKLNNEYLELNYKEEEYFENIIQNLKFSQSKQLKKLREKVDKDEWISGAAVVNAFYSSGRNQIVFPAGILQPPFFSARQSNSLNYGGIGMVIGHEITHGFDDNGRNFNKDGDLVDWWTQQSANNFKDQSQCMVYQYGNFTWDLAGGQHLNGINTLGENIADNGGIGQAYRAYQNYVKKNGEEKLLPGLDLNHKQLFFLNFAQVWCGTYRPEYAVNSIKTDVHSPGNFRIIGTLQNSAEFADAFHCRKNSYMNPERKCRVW
Type: biochemical
Experimental: Enkephalinase activity was determined in a striatum membrane fraction of rats. The straitum was placed in ice and was homogenized in buffered 0.05M Tris with a pH of 7.4 (20 times the volume) and after a first centrifugation at 1000 g, the particular fraction obtained was subjected to two centrifugations for 10 minutes at 20,000 g. The culot was then suspended in buffered Tris and kept at 4° C. The amount of proteins was determined by the Comassie blue method.
After preincubation at 25° C. for 15 minutes, an aliquot of proteins was incubated at 25° C. for 15 minutes in the presence of 20 nanomoles of tritiated leucine-enkephaline (against the first amino acid) previously purified, of 1 mM of puromycin and the test product in buffered Tris. The hydrolysis reaction was stopped by addition of 0.2N hydrochloric acid and the icubate was subjected to a deproteinization by heating at 95° C. for 15 minutes. Under these conditions, the kinetic reaction was linear. The tritiated metabolites obtained by hydrolysis were separated from enkephaline by chromatography over a column of porapak Q and elution with buffered Tris whereby enkephaline was retained in the column and was released in the following ethanolic phase. The activity of the different products was expressed in 50% inhibiting concentration called CI50 in Table I.

Row | Compound | IC50 [µM]
1 | O=C(CCS)Nc1ccccc1 [N--phenyl-3-mercapto-propanamide, N-phenyl-3-mercapto-propanamide] | 40
2 | CC(=O)SCC(=O)Nc1nccs1 [Ethanethioate of S-[2-(2-thiazolylamino)-2-oxo-ethyl]] | 130
3 | O=C(CS)Nc1nccs1 [N--(2-thiazolyl)-2-mercapto-acetamide, N-(2-thiazolyl)-2-mercapto-acetamide] | 30
4 | CC(=O)SCC(=O)Nc1ccc(Cl)cc1 [Ethanethioate of S-[2-(4-chlorophenylamino)-2-oxo-ethyl]] | 6
5 | O=C(CS)Nc1ccccc1 [N--phenyl-2-mercapto-acetamide, N-phenyl-2-mercapto-acetamide] | 3
6 | O=C(CS)Nc1ccc(Cl)cc1 [N--(4-chlorophenyl)-2-mercapto-acetamide, N-(4-chlorophenyl)-2-mercapto-acetamide] | 5
